What is called Ki is a dissociation constant, usually derived from enzyme kinetics or from competition with a known ligand. A lower Ki goes with a stronger hold on the target.

TAAR1, sequence (Q923Y8 whole entry): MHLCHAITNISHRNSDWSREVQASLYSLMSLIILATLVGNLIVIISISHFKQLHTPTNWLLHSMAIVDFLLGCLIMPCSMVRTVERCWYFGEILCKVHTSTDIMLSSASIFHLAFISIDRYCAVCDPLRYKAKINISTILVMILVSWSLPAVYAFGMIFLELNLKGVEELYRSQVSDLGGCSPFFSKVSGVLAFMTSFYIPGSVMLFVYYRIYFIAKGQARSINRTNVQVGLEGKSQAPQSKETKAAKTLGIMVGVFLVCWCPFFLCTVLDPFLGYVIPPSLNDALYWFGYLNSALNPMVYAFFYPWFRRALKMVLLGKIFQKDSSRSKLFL

This assay addresses TAAR1 (Mus musculus (Mouse), UniProt Q923Y8). Briefly: Radioligand binding assay on TAAR1 (membranes of stably transfected HEK293 cells). The note with it: competition with [3H]-rac-2-(1,2,3,4-tetrahydro-1-naphthyl)-2-imidazoline, 4° C., 30 min. The protocol:
For the construction of expression plasmids the coding sequences of human, rat and mouse TAAR 1 were amplified from genomic DNA essentially as described by Lindemann et al.. The Expand High Fidelity PCR System (Roche Diagnostics) was used with 1.5 mM Mg^2+ and purified PCR products were cloned into pCR2.1—TOPO cloning vector (Invitrogen) following the instructions of the manufacturer. PCR products were subcloned into the pIRESneo2 vector (BD Clontech, Palo Alto, Calif.), and expression vectors were sequence verified before introduction in cell lines.
HEK293 cells (ATCC # CRL-1573) were cultured essentially as described Lindemann et al. (2005). For the generation of stably transfected cell lines HEK293 cells were transfected with the pIRESneo2 expression plasmids containing the TAAR coding sequences (described above) with Lipofectamine 2000 (Invitrogen) according to the instructions of the manufacturer, and 24 hrs post transfection the culture medium was supplemented with 1 mg/ml G418 (Sigma, Buchs, Switzerland). After a culture period of about 10 d clones were isolated, expanded and tested for responsiveness to trace amines (all compounds purchased from Sigma) with the cAMP Biotrak Enzyme immunoassay (EIA) System (Amersham) following the non-acetylation EIA procedure provided by the manufacturer. […] Membrane Preparation and Radioligand Binding
Cells at confluence were rinsed with ice-cold phosphate buffered saline without Ca^2+ and Mg^2+ containing 10 mM EDTA and pelleted by centrifugation at 1000 rpm for 5 min at 4° C. The pellet was then washed twice with ice-cold phosphate buffered saline and cell pellet was frozen immediately by immersion in liquid nitrogen and stored until use at −80° C. Cell pellet was then suspended in 20 ml HEPES-NaOH (20 mM), pH 7.4 containing 10 mM EDTA, and homogenized with a Polytron (PT 3000, Kinematica) at 10,000 rpm for 10 s. The homogenate was centrifuged at 48,000×g for 30 min at 4° C. and the pellet resuspended in 20 ml HEPES-NaOH (20 mM), pH 7.4 containing 0.1 mM EDTA (buffer A), and homogenized with a Polytron at 10,000 rpm for 10 s. The homogenate was then centrifuged at 48,000×g for 30 min at 4° C. and the pellet resuspended in 20 ml buffer A, and homogenized with a Polytron at 10,000 rpm for 10 s. Protein concentration was determined by the method of Pierce (Rockford, Ill.). The homogenate was then centrifuged at 48,000×g for 10 min at 4° C., resuspended in HEPES-NaOH (20 mM), pH 7.0 including MgCl2 (10 mM) and […] homogenized with a Polytron at 10,000 rpm for 10 s.
Binding assay was performed at 4° C. in a final volume of 1 ml, and with an incubation time of 30 min. The radioligand [^3H]-rac-2-(1,2,3,4-tetrahydro-1-naphthyl)-2-imidazoline was used at a concentration equal to the calculated Kd value of 60 nM to give a bound at around 0.1% of the total added radioligand concentration, and a specific binding which represented approximately 70-80% of the total binding. Non-specific binding was defined as the amount of [^3H]-rac-2-(1,2,3,4-tetrahydro-1-naphthyl)-2-imidazoline bound in the presence of the appropriate unlabelled ligand (10 μM). Competing ligands were tested in a wide range of concentrations […]. […] Each experiment was performed in duplicate. All incubations were terminated by rapid filtration through UniFilter-96 plates (Packard Instrument Company) and glass filter GF/C, pre-soaked for at least 2 h in polyethylenimine 0.3%, and using a Filtermate 96 Cell Harvester (Packard Instrument Company). The tubes and filters were then washed 3 times with 1 ml aliquots of cold buffer B. Filters were not dried and soaked in Ultima gold (45 μl/well, Packard Instrument Company) and bound radioactivity was counted by a TopCount Microplate Scintillation Counter (Packard Instrument Company).
`NC1=N[C@@H](CCOc2ccccc2)CO1` [Example 1, (S)-4-(2-Phenoxy-ethyl)-4,5-dihydro-oxazol-2-ylamine]: the Ki was 0.0017 µM. This lies in the single-digit nanomolar range. For the compound `NC1=N[C@@H](CCOc2ccc(F)cc2)CO1` [Example 2, (S)-4-[2-(4-Fluoro-phenoxy)-ethyl]-4,5-dihydro-oxazol-2-ylamine], the affinity, expressed as Ki, was 0.0028 µM.

Consider `NC1=N[C@@H](CCOc2ccc(Cl)cc2)CO1` [Example 3, (S)-4-[2-(4-Chloro-phenoxy)-ethyl]-4,5-dihydro-oxazol-2-ylamine], for which the inhibition constant (Ki) was determined as 0.0005 µM. The compound `NC1=N[C@@H](CCOc2cccc(C(F)(F)F)c2)CO1` [Example 4, (S)-4-[2-(3-Trifluoromethyl-phenoxy)-ethyl]-4,5-dihydro-oxazol-2-ylamine] gave an inhibitory constant (Ki) of 0.0009 µM. Then `NC1=N[C@@H](CCOc2cccc(Cl)c2)CO1` [Example 5, (S)-4-[2-(3-Chloro-phenoxy)-ethyl]-4,5-dihydro-oxazol-2-ylamine], with 0.0003 µM; and `NC1=N[C@@H](CCOc2ccccc2Cl)CO1` [Example 6, (S)-4-[2-(2-Chloro-phenoxy)-ethyl]-4,5-dihydro-oxazol-2-ylamine], with 0.0041 µM; and `CC(C)(CC[C@H]1COC(N)=N1)c1ccccc1` [Example 7, (S)-4-(3-Methyl-3-phenyl-butyl)-4,5-dihydro-oxazol-2-ylamine], with 0.0032 µM. Turning to `NC1=N[C@@H](CCOc2ccc(F)c(Cl)c2)CO1` [Example 8, (S)-4-[2-(3-Chloro-4-fluoro-phenoxy)-ethyl]-4,5-dihydro-oxazol-2-ylamine], the inhibitory constant (Ki) turned out to be 0.0002 µM. For `NC1=N[C@@H](CCOc2ccc(F)c(F)c2)CO1` [Example 9, (S)-4-[2-(3,4-Difluoro-phenoxy)-ethyl]-4,5-dihydro-oxazol-2-ylamine], the affinity corresponds to a Ki of 0.0012 µM. Then `NC1=N[C@@H](CCOc2ccc(F)cc2Cl)CO1` [Example 10, (S)-4-[2-(2-Chloro-4-fluoro-phenoxy)-ethyl]-4,5-dihydro-oxazol-2-ylamine], with 0.0021 µM. For `NC1=N[C@@H](CCOc2ccc(F)cc2F)CO1` [Example 11, (S)-4-[2-(2,4-Difluoro-phenoxy)-ethyl]-4,5-dihydro-oxazol-2-ylamine] the value was 0.0011 µM.

Take `CC(CC[C@H]1COC(N)=N1)c1ccccc1` (stereo partly drawn) [Example 13, (4S)-4-(3-Phenyl-butyl)-4,5-dihydro-oxazol-2-ylamine]: the affinity, expressed as Ki, was 0.0073 µM. For `CCC(CC[C@H]1COC(N)=N1)c1ccccc1` (stereo partly drawn) [Example 14, (4S)-4-(3-Phenyl-pentyl)-4,5-dihydro-oxazol-2-ylamine] the value was 0.0056 µM; for `CC(CC[C@H]1COC(N)=N1)c1ccc(F)cc1` (stereo partly drawn) [Example 17, (4S)-4-[3-(4-Fluoro-phenyl)-butyl]-4,5-dihydro-oxazol-2-ylamine], 0.0012 µM; for `CCC(CC[C@H]1COC(N)=N1)c1ccc(F)cc1` (stereo partly drawn) [Example 18, (4S)-4-[3-(4-Fluoro-phenyl)-pentyl]-4,5-dihydro-oxazol-2-ylamine], 0.0026 µM. For `NC1=N[C@@H](CCOc2cccc(OC(F)(F)F)c2)CO1` [Example 19, (S)-4-[2-(3-Trifluoromethoxy-phenoxy)-ethyl]-4,5-dihydro-oxazol-2-ylamine] the value was 0.0021 µM; for `COc1cccc(OCC[C@H]2COC(N)=N2)c1` [Example 20, (S)-4-[2-(3-Methoxy-phenoxy)-ethyl]-4,5-dihydro-oxazol-2-ylamine], 0.0025 µM; for `CC(C)c1cccc(OCC[C@H]2COC(N)=N2)c1` [Example 21, (S)-4-[2-(3-Isopropyl-phenoxy)-ethyl]-4,5-dihydro-oxazol-2-ylamine], 0.0017 µM. Then `NC1=N[C@@H](CC2CC2c2ccccc2)CO1` (stereo partly drawn) [Example 23, (4S)-4-(2-Phenyl-cyclopropylmethyl)-4,5-dihydro-oxazol-2-ylamine], with 0.0031 µM; and `CC(OC[C@H]1COC(N)=N1)c1ccccc1` (stereo partly drawn) [Example 24, (4S)-4-(1-Phenyl-ethoxymethyl)-4,5-dihydro-oxazol-2-ylamine], with 0.0084 µM. In turn, `CC(C)(CC[C@H]1COC(N)=N1)c1ccc(F)cc1` [Example 25, (S)-4-[3-(4-Fluoro-phenyl)-3-methyl-butyl]-4,5-dihydro-oxazol-2-ylamine] showed a Ki of 0.003 µM. Compared with the last compound, the Ki is about 2.8-fold lower. Compound `CC(C)(CC[C@H]1COC(N)=N1)c1ccc(Cl)cc1` [Example 26, (S)-4-[3-(4-Chloro-phenyl)-3-methyl-butyl]-4,5-dihydro-oxazol-2-ylamine] yielded a Ki of 0.0007 µM. Then `CCC(CC[C@H]1COC(N)=N1)c1ccc(Cl)cc1` (stereo partly drawn) [Example 27, (4S)-4-[3-(4-Chloro-phenyl)-pentyl]-4,5-dihydro-oxazol-2-ylamine], with 0.0017 µM; and `CCC(CC[C@H]1COC(N)=N1)c1cccc(C(F)(F)F)c1` (stereo partly drawn) [Example 28, (4S)-4-[3-(3-Trifluoromethyl-phenyl)-pentyl]-4,5-dihydro-oxazol-2-ylamine], with 0.0013 µM; and `NC1=N[C@@H](CCC2(c3ccc(Cl)cc3)CC2)CO1` [Example 30, (S)-4-{2-[1-(4-Chloro-phenyl)-cyclopropyl]-ethyl}-4,5-dihydro-oxazol-2-ylamine], with 0.0004 µM. Then `Cc1cccc(OCC[C@H]2COC(N)=N2)c1` [Example 32, (S)-4-(2-m-Tolyloxy-ethyl)-4,5-dihydro-oxazol-2-ylamine], with 0.0007 µM; and `NC1=N[C@@H](CCOc2cccc(-c3ccccc3)c2)CO1` [Example 33, (S)-4-[2-(Biphenyl-3-yloxy)-ethyl]-4,5-dihydro-oxazol-2-ylamine], with 0.0018 µM; and `NC1=N[C@@H](CCOc2cccc(OCc3ccccc3)c2)CO1` [Example 34, (S)-4-[2-(3-Benzyloxy-phenoxy)-ethyl]-4,5-dihydro-oxazol-2-ylamine], with 0.0008 µM. For `NC1=N[C@@H](CCOc2cccc(Br)c2)CO1` [Example 35, (S)-4-[2-(3-Bromo-phenoxy)-ethyl]-4,5-dihydro-oxazol-2-ylamine] the value was 0.0001 µM. For `NC1=N[C@@H](CCOc2ccc(Oc3ccccc3)cc2)CO1` [Example 36, (S)-4-[2-(4-Phenoxy-phenoxy)-ethyl]-4,5-dihydro-oxazol-2-ylamine], the affinity, expressed as Ki, was 0.0039 µM. In turn, `C[C@@H](C[C@H]1COC(N)=N1)Oc1ccc(Cl)cc1` [Example 45, (S)-4-[(S)-2-(4-Chloro-phenoxy)-propyl]-4,5-dihydro-oxazol-2-ylamine] registered a Ki of 0.0028 µM. For `NC1=N[C@@H](CCOc2ccc(Cc3ccccc3)cc2)CO1` [Example 47, (S)-4-[2-(4-Benzyl-phenoxy)-ethyl]-4,5-dihydro-oxazol-2-ylamine] the value was 0.0048 µM; for `NC1=N[C@@H](CCOc2ccc(-c3ccc(F)cc3)cc2)CO1` [Example 48, (S)-4-[2-(4′-Fluoro-biphenyl-4-yloxy)-ethyl]-4,5-dihydro-oxazol-2-ylamine], 0.0016 µM; for `NC1=N[C@@H](CCOc2ccc(Cl)c(F)c2)CO1` [Example 54, (S)-4-[2-(4-Chloro-3-fluoro-phenoxy)-ethyl]-4,5-dihydro-oxazol-2-ylamine], 0.0014 µM. Consider `NC1=N[C@@H](CCOc2ccc(Br)cc2)CO1` [Example 55, (S)-4-[2-(4-Bromo-phenoxy)-ethyl]-4,5-dihydro-oxazol-2-ylamine], for which the Ki stood at 0.0025 µM. In turn, `NC1=N[C@@H](CCOc2ccc(Cl)c(Cl)c2)CO1` [Example 57, (S)-4-[2-(3,4-Dichloro-phenoxy)-ethyl]-4,5-dihydro-oxazol-2-ylamine] gave a Ki of 0.0003 µM.

These data come from US8729113B2 (Hoffmann-La Roche Inc., priority 2008, dated 2014).
